Three molecules from publication PMC7174022 (Dalton transactions (Cambridge, England : 2003), 2020) can be followed below.

The test system of series [1] is microtubule network in MCF-7 cells. The class given is cell-based, human.
Series [2] deals with the cell lines investigated.
In series [3] the test system is MCF-7 cells (breast adenocarcinoma). It counts as cell-based, human. As to conditions: read-out: IC50 MCF-7.
The subject of series [4] is MIA PaCa 2 cells (human pancreatic carcinoma). It counts as cell-based. The conditions noted are these: read-out: IC50 MIA PaCa 2.
The subject of series [5] is DU-145 cells (metastatic prostate carcinoma). The class given is cell-based, human. The conditions noted are these: read-out: IC50 DU-145.
Series [6] deals with Hep G2 cells (human hepatocellular carcinoma). The class given is cell-based. The conditions noted are these: read-out: IC50 Hep G2.
Another series relates to DU-145 cells. The class given is cell-based, human.
For series [7], the system named is HFF-1 cells (normal human foreskin fibroblast). It counts as cell-based. As to conditions: read-out: IC50 HFF-1.
Series [8] concerns PANC-1 cells (human pancreatic carcinoma). The class given is cell-based. As to conditions: read-out: IC50 PANC-1.

`COc1cc2c(c(OC)c1OC)-c1ccc(OC)c(=O)cc1[C@@H](NC(C)=O)CC2` [colchicine, Colchicine]: the “organization of microtubule network (positive control)” value in [1] is reported as “disruption of microtubule network”.
As to `OCCN(CCO)Cc1ccccn1` [Complex L1, bis(2-hydroxyethyl)pyridylmethylamine], the “cytotoxicity of the ligands (in words)” value in [2] is “did not exhibit any cytotoxicity”.
Regarding `O=C1[O][Pt]2([NH][C@@H]3CCCC[C@H]3[NH]2)[O]C1=O` [Oxaliplatin], the IC50 (commonly the midpoint of a concentration-inhibition curve) in series [3] worked out at 0.6 ± 0.1 µM; in series [4], 5.7 ± 0.2 µM; in series [5], 4.5 ± 0.3 µM; in [6] it was 9.8 ± 0.3 µM; in series [7] it was 7 ± 0.6 µM; in series [8] it was 3.1 ± 0.2 µM. Further, the “increase in cell killing efficiency in presence of verapamil” value with DU-145 cells is 8 times.
